Legend:
[1] = target: recombinant 17bHSD13 (N2-K300) (Homo sapiens (Human), UniProt Q7Z5P4); assay: In Vitro 17bHSD13 Enzyme Assay; type: biochemical; conditions: 80 nM 17bHSD13, 0.5 mM NAD, 20 μM Estradiol, 2.5 h; estradiol to estrone by LC-MS/MS
Outline: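 Human 17bHSD13 (N2-K300, 80 nM) with 0.5 mM NAD, 20 μM estradiol and varied compound in 50 mM Tris-Cl pH 7.4, 5 mM EDTA, 0.01% DDM. Estrone/(estrone+estradiol) ratio read by LC-MS/MS (APCI, positive MRM). Inhibition normalised to DMSO and a known-inhibitor control; IC50 from curve fit.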

[2] = target: recombinant 17bHSD4 (M1-N311) (Homo sapiens (Human), UniProt P51659); assay: In Vitro 17bHSD4 Enzyme Assay; type: biochemical; conditions: 40 nM 17bHSD4, 0.125 mM NAD, 15 μM Estradiol, 1.5 h; NADH fluorescence; read-out: 17HSD17b4 Enzyme assay IC50
[3] = target: human CB1 receptor expressed in transfected CHO cells (Homo sapiens (Human), UniProt P21554); assay: Assay C: CB1 Agonism Assay; type: cell-based; conditions: agonist activity, cAMP HTRF, read-out: Assay C: CB1 Hu CHO cAMP TRF Ag CR GMean EC50
Procedure: Assay C: CB1 Agonism Assay
Evaluation of the agonist activity of compounds at the human CB1 receptor expressed in transfected CHO cells, determined by measuring their effects on cAMP modulation using the HTRF detection method.
Thereafter, the adenylyl cyclase activator NKH 477 is added at a final concentration of 3 μM. Following 20 min incubation at 37° C., the cells are lysed and the fluorescence acceptor (D2-labeled cAMP) and fluorescence donor (anti-cAMP antibody labeled with europium cryptate) are added. After 60 min at room temperature, the fluorescence transfer is measured at gex=337 nm and gem=620 and 665 nm using a microplate reader (RUBYSTAR, BMG). The cAMP concentration is determined by dividing the signal measured at 665 nm by that measured at 620 nm (ratio). The results are expressed as a percent of the control response to 30 nM CP 55940. The standard reference agonist is CP 55940, which is tested in each experiment at several concentrations to generate a concentration-response curve from which its EC50 value is calculated.
Bibliographic reference Felder, C. C. et al., (1995), Comparison of the pharmacology and signal transduction of the human cannabinoid CB1 and CB2 receptors, Mol. Pharmacol., 48: 443, which is incorporated herein by reference.

[4] = Metabolism Study: in vitro study to identify metabolites; type: in vitro ADME
From the text: Metabolites 1 and 2 were subsequently synthesised and characterised.

Sequence of recombinant 17bHSD4 (M1-N311) (P51659 1-311): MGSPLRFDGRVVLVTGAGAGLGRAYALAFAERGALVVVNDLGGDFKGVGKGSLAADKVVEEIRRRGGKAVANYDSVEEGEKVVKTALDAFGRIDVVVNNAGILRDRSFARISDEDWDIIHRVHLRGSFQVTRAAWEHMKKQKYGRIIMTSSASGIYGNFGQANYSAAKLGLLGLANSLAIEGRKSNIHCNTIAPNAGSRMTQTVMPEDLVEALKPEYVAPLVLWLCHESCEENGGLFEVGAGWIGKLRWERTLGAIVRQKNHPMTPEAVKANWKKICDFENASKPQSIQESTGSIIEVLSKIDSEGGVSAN
Sequence of human CB1 receptor expressed in transfected CHO cells (P21554 whole entry): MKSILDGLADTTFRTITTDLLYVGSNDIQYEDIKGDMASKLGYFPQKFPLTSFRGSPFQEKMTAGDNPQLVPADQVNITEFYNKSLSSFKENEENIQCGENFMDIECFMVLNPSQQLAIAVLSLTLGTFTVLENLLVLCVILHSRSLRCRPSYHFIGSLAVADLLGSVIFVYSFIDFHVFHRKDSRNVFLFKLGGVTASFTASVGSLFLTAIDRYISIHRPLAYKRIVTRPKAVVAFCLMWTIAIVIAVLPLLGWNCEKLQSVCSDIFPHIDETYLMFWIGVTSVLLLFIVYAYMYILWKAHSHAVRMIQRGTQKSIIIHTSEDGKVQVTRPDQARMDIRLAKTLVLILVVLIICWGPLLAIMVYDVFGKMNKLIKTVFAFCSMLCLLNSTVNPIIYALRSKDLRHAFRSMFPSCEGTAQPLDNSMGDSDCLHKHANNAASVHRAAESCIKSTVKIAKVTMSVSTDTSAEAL
Sequence of recombinant 17bHSD13 (N2-K300) (Q7Z5P4 2-300): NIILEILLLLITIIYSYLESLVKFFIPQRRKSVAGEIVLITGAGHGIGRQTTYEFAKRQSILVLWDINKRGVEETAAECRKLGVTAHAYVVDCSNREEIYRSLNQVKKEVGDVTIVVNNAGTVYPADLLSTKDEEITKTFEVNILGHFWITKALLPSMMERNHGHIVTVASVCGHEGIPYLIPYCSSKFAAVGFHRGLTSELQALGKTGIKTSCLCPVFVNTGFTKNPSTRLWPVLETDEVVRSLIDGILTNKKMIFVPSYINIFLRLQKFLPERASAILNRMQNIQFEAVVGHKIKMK

- IC50 [1]: 0.285 µM
- IC50 [2]: > 200 µM
- EC50 [3]: 46 µM
- metabolites identified [4]: yielded Metabolite 1 and Metabolite 2
Compound: C[C@@H]1CN(C(=O)c2noc(-c3cc(F)c(F)c(O)c3F)n2)C[C@H](C)O1 [Example 87, ((2R,6S)-2,6-Dimethylmorpholino)(5-(2,4,5-trifluoro-3-hydroxyphenyl)-1,2,4-oxadiazol-3-yl)methanone]

— patent US20250011311A1, “AMIDO HETEROAROMATIC COMPOUNDS” (AstraZeneca AB, priority 2022, published 2025)
